Twelve compounds from ChEMBL document CHEMBL1201862, “PubChem BioAssay data set” (2004) can be followed below.

Among the test systems are HCC 2998; HCT-15; K562; MCF7; MDA-N; NCI-H23; OVCAR-3; OVCAR-5; SF-295; SF-539; SK-MEL-2; SN12C; SW-620; TK-10; UACC-257; UACC-62; A498; Hs-578T; MDA-MB-231; T47D.
Test in all cases: NCI anticancer screen, dose series, 48 h

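Method: 48-hour compound exposure of cells in 96-well plates, five concentrations, linear interpolation of endpoints. At the GI50, growth is halved.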 The source made the active and inactive calls. Cut-off read from the data, not from the text of the source: active = GI50 up to about 1.1 µM and inactive = higher. A value given as a limit tells only on which side of the number the result lay.

For `Cc1cccc2nc3n(c12)C(=O)c1ccccc1-3`, the GI50 is > 100 µM (inactive) with HCC 2998; over 100 µM in the assay with HCT-15; > 100 µM (inactive) in the assay with K562; > 100 µM (inactive) in the assay with MCF7; 43.2 µM (inactive) with MDA-N; > 100 µM (inactive) with NCI-H23. The GI50 was > 100 µM (inactive) with OVCAR-3; > 100 µM (inactive) in the assay on OVCAR-5; 49.9 µM (inactive) in the assay on SF-295; > 100 µM (inactive) in the assay on SF-539; > 100 µM (inactive) with SK-MEL-2; > 100 µM (inactive) in the assay with SN12C. The GI50 in the assay with SW-620, with TK-10, with UACC-257 and in the assay with UACC-62 was > 100 µM (inactive) throughout.

In the case of `CC(C)c1ccc2nc3ccc(C(=O)NCCN4CCN(c5ccccc5)CC4)cn3c(=O)c2c1`, the GI50 in the assay on A498 was 29.9 µM (inactive); in the assay on HCC 2998, 11.1 µM (inactive); with HCT-15 it was 6.38 µM; in the assay on Hs-578T it was 4.93 µM (inactive); with K562 it was 2.45 µM (inactive); in the assay with MCF7, 10 µM (inactive). In addition, the GI50 was > 100 µM (inactive) in the assay with MDA-MB-231; 4.6 µM (inactive) with MDA-N; 7.73 µM (inactive) with NCI-H23; > 100 µM (inactive) in the assay with OVCAR-3; > 100 µM (inactive) in the assay with OVCAR-5; 2.22 µM (inactive) with SF-295. The GI50 is 8.49 µM (inactive) in the assay on SW-620, 3.56 µM (inactive) with TK-10, 4.67 µM (inactive) in the assay on UACC-257 and 3.87 µM (inactive) with UACC-62.

In the case of `COc1ccc(CCc2ccccc2CC(=O)O)cc1`, the GI50 in the assay with A498 is > 100 µM (inactive); in the assay with HCC 2998, > 100 µM (inactive); in the assay on HCT-15 it was over 100 µM; in the assay on K562, > 100 µM (inactive); in the assay on NCI-H23, > 100 µM (inactive); in the assay with OVCAR-3, > 100 µM (inactive). In addition, the GI50 in the assay with OVCAR-5, in the assay on SF-295, in the assay on SF-539, in the assay on SK-MEL-2, in the assay on SN12C and in the assay with SW-620 was > 100 µM (inactive) each time. Further, the GI50 in the assay on TK-10, with UACC-257 and in the assay on UACC-62 was > 100 µM (inactive) each time.

As to `O=C1CC2(CCN(CC3COc4ccccc4O3)CC2)C(=O)N1N1CCCCCC1` (stereo unspecified), the GI50 in the assay on A498 was > 100 µM (inactive); with HCT-15, over 100 µM; in the assay with Hs-578T, 44.1 µM (inactive); in the assay on K562 it was 15.6 µM (inactive); in the assay with MCF7 it was 37.2 µM (inactive); in the assay on MDA-MB-231, > 100 µM (inactive). In addition, the GI50 with NCI-H23 was 16.9 µM (inactive); in the assay with OVCAR-3, > 100 µM (inactive); in the assay on OVCAR-5, 48.5 µM (inactive); in the assay on SF-295, 71.1 µM (inactive); in the assay on SF-539, > 100 µM (inactive); in the assay on SK-MEL-2 it was > 100 µM (inactive). Further, the GI50 in the assay with SN12C was > 100 µM (inactive); with T47D, 33.7 µM (inactive); in the assay with TK-10 it was > 100 µM (inactive); with UACC-257, 13.9 µM (inactive); in the assay on UACC-62 it was > 100 µM (inactive).

With `Cc1cc(NN)nc2[nH]nc(N)c12`, the GI50 in the assay with A498 is > 100 µM (inactive); in the assay with HCT-15, over 100 µM; with Hs-578T, > 100 µM (inactive); with K562 it was > 100 µM (inactive); in the assay with MCF7, > 100 µM (inactive); with MDA-MB-231, 45.4 µM (inactive). Besides, the GI50 in the assay with NCI-H23, in the assay with OVCAR-3, in the assay on OVCAR-5, in the assay with SF-295, with SF-539 and in the assay with SK-MEL-2 was > 100 µM (inactive) throughout. For the same compound, the GI50 in the assay with SN12C, in the assay with SW-620, with T47D, in the assay on TK-10, in the assay with UACC-257 and in the assay on UACC-62 was > 100 µM (inactive) in each case.

For the compound `CN1COCc2cc3cc4c(cc3nc21)OCCO4`, the GI50 in the assay on A498 is > 100 µM (inactive); in the assay with HCC 2998 it was > 100 µM (inactive); with HCT-15, over 100 µM; in the assay with Hs-578T it was 0.0452 µM (active); in the assay on K562, > 100 µM (inactive); in the assay with MCF7 it was 21.2 µM (inactive). Besides, the GI50 in the assay on MDA-MB-231, in the assay on MDA-N, in the assay with OVCAR-5, in the assay on SF-295, with SF-539 and with SK-MEL-2 was > 100 µM (inactive) throughout. For the same compound, the GI50 with SN12C, in the assay with SW-620, with TK-10, in the assay on UACC-257 and in the assay on UACC-62 was > 100 µM (inactive) each time.

As for `C=C1C[C@H](O)[C@H]2C(C[Se]c3ccccc3)C(=O)O[C@@H]2[C@H]2[C@H](C)C(O)C[C@@H]12` (stereo partly specified), the GI50 in the assay on HCT-15 was 13.8 µM; with Hs-578T, 32.8 µM (inactive); in the assay on K562, 36.6 µM (inactive); with MCF7, > 100 µM (inactive); with MDA-MB-231, 14.8 µM (inactive); with NCI-H23, 15.7 µM (inactive). Further, the GI50 is 24.4 µM (inactive) with OVCAR-3; 20.6 µM (inactive) in the assay on OVCAR-5; 75.9 µM (inactive) with SF-295; 55.3 µM (inactive) with SF-539; 66.2 µM (inactive) in the assay with SK-MEL-2; 21.8 µM (inactive) in the assay on SN12C. For the same compound, the GI50 in the assay on SW-620 is 27.5 µM (inactive); in the assay with T47D it was 28.3 µM (inactive); in the assay on TK-10, 56.9 µM (inactive); with UACC-257, 37.9 µM (inactive); with UACC-62 it was 19.1 µM (inactive).

For the compound `CC1(C)OCC2OC3([C@@H]4OC(C)(C)O[C@H]4CO)OC(C)(C)OC3C2O1` (stereo partly specified), the GI50 in the assay on A498 was > 100 µM (inactive); in the assay with HCC 2998, > 100 µM (inactive); in the assay on HCT-15 it was over 100 µM; with K562, > 100 µM (inactive); in the assay with MCF7, > 100 µM (inactive); in the assay on MDA-MB-231, > 100 µM (inactive). In addition, the GI50 in the assay with MDA-N, with NCI-H23, in the assay on OVCAR-3, in the assay with OVCAR-5, with SF-295 and in the assay on SF-539 was > 100 µM (inactive) in each case. Moreover, the GI50 with SK-MEL-2, in the assay on SN12C, in the assay with SW-620, with T47D, with UACC-257 and in the assay on UACC-62 was > 100 µM (inactive) each time.

`Cc1cc(Cl)ccc1NC1=NC(=O)C(CC(=O)Nc2ccc([N+](=O)[O-])cc2[N+](=O)[O-])S1` (stereo unspecified): the GI50 was 23.4 µM (inactive) in the assay with A498; 39.6 µM (inactive) in the assay with HCC 2998; 29.5 µM in the assay on HCT-15; 27.6 µM (inactive) with K562; 20.9 µM (inactive) with NCI-H23; 23.6 µM (inactive) with OVCAR-3. The GI50 with OVCAR-5 was 24.2 µM (inactive); in the assay on SF-295 it was 22.9 µM (inactive); in the assay with SF-539, 24.3 µM (inactive); with SK-MEL-2, 20.5 µM (inactive); in the assay with SN12C, 26.9 µM (inactive); in the assay on SW-620, 32.9 µM (inactive). For the same compound, the GI50 with TK-10 is 48.1 µM (inactive); in the assay with UACC-257, 28.4 µM (inactive); in the assay with UACC-62, 23.8 µM (inactive).

Consider `C[C@@H]1C2=CC[C@@]3(C)C(CCC3[C@H](C)[C@H]3C[C@@]4(C)O[C@@](c5cccnc5)(O3)OC4(C)C)[C@@H]2C2OC2[C@@]12CCC(=O)O2` (stereo partly specified), for which the GI50 was > 100 µM (inactive) in the assay with A498; 37 µM (inactive) with HCC 2998; 32.1 µM in the assay with HCT-15; 27.5 µM (inactive) in the assay on K562; 34.2 µM (inactive) with NCI-H23; 24.1 µM (inactive) with OVCAR-3. The GI50 was 57.4 µM (inactive) with OVCAR-5; 31.2 µM (inactive) with SF-295; 52.2 µM (inactive) in the assay with SF-539; 25.2 µM (inactive) in the assay with SK-MEL-2; 33 µM (inactive) with SN12C; 37.7 µM (inactive) with SW-620. The GI50 in the assay with TK-10 is 44.8 µM (inactive); with UACC-257, 44 µM (inactive); with UACC-62, 30.3 µM (inactive).

Consider `CC(=O)C1C(=O)C(=O)N(c2ccc([N+](=O)[O-])cc2)C1=O` (stereo unspecified), for which the GI50 was > 100 µM (inactive) with HCC 2998; over 100 µM with HCT-15; > 100 µM (inactive) in the assay with Hs-578T; > 100 µM (inactive) with MCF7; > 100 µM (inactive) with MDA-MB-231; > 100 µM (inactive) in the assay on MDA-N. In addition, the GI50 is > 100 µM (inactive) in the assay with NCI-H23; > 100 µM (inactive) in the assay with OVCAR-3; > 100 µM (inactive) with OVCAR-5; > 100 µM (inactive) with SF-295; > 100 µM (inactive) in the assay with SF-539; 66.2 µM (inactive) with SK-MEL-2. The GI50 in the assay with SN12C, with SW-620, in the assay on TK-10, in the assay with UACC-257 and in the assay with UACC-62 was > 100 µM (inactive) throughout.

Take `CCC1(O)C(=O)OCc2c1cc1n(c2=O)Cc2cc3ccc(CO)cc3nc2-1` (stereo unspecified): the GI50 in the assay on A498 was 7.82 µM (inactive); in the assay on HCC 2998, 8.26 µM (inactive); with HCT-15, 15.6 µM; in the assay with K562, 4.3 µM (inactive); in the assay on NCI-H23, 2.07 µM (inactive); in the assay on OVCAR-3, 4.55 µM (inactive). The GI50 in the assay on OVCAR-5 was 8.97 µM (inactive); in the assay with SF-295 it was 3.18 µM (inactive); in the assay on SF-539 it was 1.42 µM (inactive); in the assay with SK-MEL-2, 18 µM (inactive); in the assay with SN12C, 1.53 µM (inactive); in the assay with SW-620 it was 7.52 µM (inactive). Besides, the GI50 was > 95.3 µM (inactive) in the assay on TK-10, 12.2 µM (inactive) in the assay with UACC-257 and 0.757 µM (active) with UACC-62.
